According to patent US9221809B2 (MERCK SHARP & DOHME CORP., priority 2011, dated 2015):
Where a name gives a salt, the structure may show the parent alone. Read-outs that look alike come from different tables or passages of the source.

Molecular target: IRAK4 (Homo sapiens (Human), UniProt Q9NWZ3)
Experiment: IRAK4 kinase activity, IMAP fluorescence polarization assay
Assay type: biochemical
Settings: 100 μM ATP
Description: The kinase activity of IRAK4 is determined by its ability to catalyze the phosphorylation of a fluorescent polypeptide substrate. The extent of phosphorylation is measured using IMAP technology (Molecular Devices) where the phosphorylated fluorescent substrate binds to the large M(III)-based nanoparticles which reduces the rotational speed of the substrate and thus increases its fluorescent polarization (FP).
Assay Procedure: A 20 μl reaction mixture contains 10 mM TriHCl, pH 7.2, 0.5 nM GST tagged IRAK4 (SignalChem), 100 nM fluorescent peptide substrate (RP7030, Molecular Devices), 100 μM ATP, 1 mM DTT, 1 mM MgCl2, and 0.01% Tween 20. The reaction is initiated by the addition of ATP. After incubation for 30 minutes at 25° C., 60 μl of Progressive IMAP Reagent (Molecular Devices) is added to stop the reaction. Change in RP7030's FP is determined by a FP reader (Analyst HT, LJL BioSystems)

[1] = 0.5 nM GST tagged IRAK4, read-out: IRAK4 IC50

Sequence of IRAK4 (Q9NWZ3 whole entry): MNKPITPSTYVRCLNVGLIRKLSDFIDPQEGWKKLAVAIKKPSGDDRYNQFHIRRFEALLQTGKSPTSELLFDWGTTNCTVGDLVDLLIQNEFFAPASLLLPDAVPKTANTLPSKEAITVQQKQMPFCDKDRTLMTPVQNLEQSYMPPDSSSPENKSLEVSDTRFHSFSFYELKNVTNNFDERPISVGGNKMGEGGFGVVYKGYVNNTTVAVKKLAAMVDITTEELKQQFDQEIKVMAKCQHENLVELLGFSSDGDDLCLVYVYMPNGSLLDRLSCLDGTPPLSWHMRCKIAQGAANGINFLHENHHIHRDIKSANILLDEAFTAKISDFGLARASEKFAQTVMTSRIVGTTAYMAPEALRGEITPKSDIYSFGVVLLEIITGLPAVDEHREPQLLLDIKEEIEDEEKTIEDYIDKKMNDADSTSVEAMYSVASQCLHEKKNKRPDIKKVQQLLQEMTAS

| IC50 (read-out: IRAK4 IC50) [nM] | IC50 [1] [nM] | SMILES | also measured |
| --- | --- | --- | --- |
|  | 620 | O=c1[nH]c(N2CCOCC2)nc(N[C@H]2CCNC2)c1-c1nc2ccccc2s1 [Example 86, (S)-5-(Benzo[d]thiazol-2-yl)-2-morpholino-6-(pyrrolidin-3-ylamino)pyrimidin-4(3H)-one.HCl] |  |
|  | 8 | O=c1[nH]c(N2CCOCC2)nc(N[C@@H]2CCCNC2)c1-c1nc2cc(Cl)ccc2s1 [Example 343, (R)-5-(5-chlorobenzo[d]thiazol-2-yl)-2-morpholino-6-(piperidin-3-ylamino)pyrimidin-4(3H)-one] |  |
| 60 |  | O=c1[nH]c(N2CCOCC2)nc(N[C@@H]2CCCNC2)c1-c1nc(-c2ccccc2F)cs1 [Example 201] |  |
|  | 9 | O=c1[nH]c(N2CCOCC2)nc(N[C@@H]2CCCNC2)c1-c1nc2c(C3CC3)nccc2s1 [Example 111, (R)-5-(4-cyclopropylthiazolo[4,5-c]pyridin-2-yl)-2-morpholino-6-(piperidin-3-ylamino)pyrimidin-4(3H)-one.HCl] |  |

Further lines, the compound ahead of its results:

| SMILES | IC50 (read-out: IRAK4 IC50) [nM] | IC50 [1] [nM] | also measured |
| --- | --- | --- | --- |
| CN1CCC2(CCN(c3nc(N[C@@H]4CCCNC4)c(-c4nc5ccccc5s4)c(=O)[nH]3)C2)C1 (stereo partly drawn) [Example 325, 5-(1,3-benzothiazol-2-yl)-2-[7-methyl-2,7-diazaspiro[4.4]nonan-2-yl]-6-[[(3R)-piperidin-3-yl]amino]-3,4-dihydropyrimidin-4-one] |  |  | IC50 (read-out: IC50): 24 nM |
| CC(C)(O)C1CN(c2nc(N[C@@H]3CCCNC3)c(-c3ccc4ccccc4n3)c(=O)[nH]2)C1 [Example 172, (R)-2-(3-(2-hydroxypropan-2-yl)azetidin-1-yl)-6-(piperidin-3-ylamino)-5-(quinolin-2-yl)pyrimidin-4(3H)-one] | 42 |  |  |
| CN1CCN(c2nc(N[C@@H]3CCCNC3)c(-c3ccc4ccccc4n3)c(=O)[nH]2)CC1 [Example 116, (R)-2-(4-methylpiperazin-1-yl)-6-(piperidin-3-ylamino)-5-(quinolin-2-yl)pyrimidin-4(3H)-one.HCl] |  | 97 |  |
| CS(=O)(=O)C1CN(c2nc(N[C@@H]3CCCNC3)c(-c3ccc4ccccc4n3)c(=O)[nH]2)C1 [Example 169, (R)-2-(3-(methylsulfonyl)azetidin-1-yl)-6-(piperidin-3-ylamino)-5-(quinolin-2-yl)pyrimidin-4(3H)-one] | 32 |  |  |
| O=c1[nH]c(N2CCOCC2)nc(N[C@@H]2CCCNC2)c1-c1csc(-n2ccnc2)n1 [Example 219, (R)-5-(2-(1H-imidazol-1-yl)thiazol-4-yl)-2-morpholino-6-(piperidin-3-ylamino)pyrimidin-4(3H)-one] |  |  | IC50 (read-out: IC50): 4 nM |
| CC(C)[C@H]1C[C@@H](Nc2nc(N3CCC(c4cncnc4)CC3)[nH]c(=O)c2-c2nc3ccccc3s2)[C@H](O)[C@@H]1O [Example 44, 5-(Benzo[d]thiazol-2-yl)-6-((1R,2S,3R,4R)-2,3-dihydroxy-4-isopropylcyclopentylamino)-2-(4-(pyrimidin-5-yl)piperidin-1-yl)pyrimidin-4(3H)-one.HCl] |  | 23 |  |
| CN(C)[C@H]1CCN(c2nc(N[C@@H]3CCCNC3)c(-c3ccc4ccccc4n3)c(=O)[nH]2)C1 [Example 166, 2-((S)-3-(dimethylamino)pyrrolidin-1-yl)-6-((R)-piperidin-3-ylamino)-5-(quinolin-2-yl)pyrimidin-4(3H)-one] | 158 |  |  |
| O=c1[nH]c(N2CCCCC2)nc(N[C@@H]2C[C@H](CO)[C@@H](O)[C@H]2O)c1-c1ccc2ccccc2n1 [Example 19, 6-((1R,2S,3R,4R)-2,3-Dihydroxy-4-(hydroxymethyl)cyclopentylamino)-2-(piperidin-1-yl)-5-(quinolin-2-yl)pyrimidin-4(3H)-one.HCl] |  | 23 |  |
| O=c1[nH]c(N2CCC(NCc3ccccc3)CC2)nc(N[C@@H]2CCCNC2)c1-c1nc2ccccc2s1 [Example 332, 5-(1,3-benzothiazol-2-yl)-2-[4-(benzylamino)piperidin-1-yl]-6-[[(3R)-piperidin-3-yl]amino]-3,4-dihydropyrimidin-4-one trifluoroacetic acid] |  |  | IC50 (read-out: IC50): 110 nM |
